From PMC7600351 (Pharmaceutics, 2020)
Where two headings read alike, the source gives them in different places.

Experiments:
[1] = system: all cell lines used; assay: Cytotoxicity Detection Kit (LDH release); type: cell-based; conditions: up to 100 µM
Description: The toxic effects of tested compounds can negatively influence transporter inhibition assays.

[2] = biological target: T1, human P-gp (Homo sapiens, UniProt P08183); assay: P-gp inhibition, calcein-AM uptake assay in L-MDR1 vs LLC-PK1 cells; type: cell-based; conditions: L-MDR1 cells and parental LLC-PK1; 0.01–100 µM; 0.5 µM calcein-AM
T1 construct: expressed in transfected cells; host or cells: L-MDR1 (derived from porcine LLC-PK1)
T1 sequence (P08183 whole entry): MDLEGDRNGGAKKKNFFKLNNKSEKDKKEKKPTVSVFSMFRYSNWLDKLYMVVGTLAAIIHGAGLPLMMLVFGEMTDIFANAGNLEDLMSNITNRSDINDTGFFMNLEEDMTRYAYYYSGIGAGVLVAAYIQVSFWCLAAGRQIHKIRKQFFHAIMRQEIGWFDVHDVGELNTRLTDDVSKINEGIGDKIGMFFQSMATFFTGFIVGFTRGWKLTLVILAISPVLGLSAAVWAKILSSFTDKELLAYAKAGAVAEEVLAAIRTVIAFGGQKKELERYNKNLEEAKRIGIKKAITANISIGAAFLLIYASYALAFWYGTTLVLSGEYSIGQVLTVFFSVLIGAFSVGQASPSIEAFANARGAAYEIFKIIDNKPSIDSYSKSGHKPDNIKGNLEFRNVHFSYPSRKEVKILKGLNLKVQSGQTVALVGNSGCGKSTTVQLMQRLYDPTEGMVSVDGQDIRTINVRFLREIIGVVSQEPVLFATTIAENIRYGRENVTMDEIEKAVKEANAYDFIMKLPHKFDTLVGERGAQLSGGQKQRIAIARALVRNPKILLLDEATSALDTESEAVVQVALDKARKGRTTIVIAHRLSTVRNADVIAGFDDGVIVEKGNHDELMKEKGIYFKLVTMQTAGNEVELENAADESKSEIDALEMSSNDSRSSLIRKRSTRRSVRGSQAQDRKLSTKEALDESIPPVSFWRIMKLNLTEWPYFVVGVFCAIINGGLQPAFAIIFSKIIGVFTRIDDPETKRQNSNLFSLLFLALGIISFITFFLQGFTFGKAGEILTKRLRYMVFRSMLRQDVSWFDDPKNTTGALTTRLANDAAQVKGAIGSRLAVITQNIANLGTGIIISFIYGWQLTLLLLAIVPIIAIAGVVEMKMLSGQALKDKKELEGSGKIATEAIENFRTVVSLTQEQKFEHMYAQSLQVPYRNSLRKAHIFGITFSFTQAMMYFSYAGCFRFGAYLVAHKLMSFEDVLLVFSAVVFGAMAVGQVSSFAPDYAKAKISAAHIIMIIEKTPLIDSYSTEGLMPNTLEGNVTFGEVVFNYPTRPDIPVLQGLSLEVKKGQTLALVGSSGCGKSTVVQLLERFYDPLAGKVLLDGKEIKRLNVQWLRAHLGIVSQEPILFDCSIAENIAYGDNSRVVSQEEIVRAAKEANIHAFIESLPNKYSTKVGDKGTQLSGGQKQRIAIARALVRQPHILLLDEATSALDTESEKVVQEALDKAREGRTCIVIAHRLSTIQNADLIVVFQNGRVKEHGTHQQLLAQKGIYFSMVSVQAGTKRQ
Description: (§1) P-gp inhibition was tested with a calcein assay as published previously using two different cell systems: the L-MDR1 cell line that over-expresses human P-gp and the corresponding parental cell line LLC-PK1 [19] and the P-gp over-expressing murine monocytic cell line P388/dx and its parental counterpart cell line P388 as a control. LLC-PK1 and L-MDR1 cells were cultured under standard cell culture conditions with medium M199 supplemented with 10% FCS, 2 mM glutamine, 100 U/mL penicillin, and 100 µg/mL streptomycin sulphate. […] One day before using the cells for the calcein assay, both cell lines were fed with vincristine-free culture medium. […] One day before the inhibition assay, both P388 cell lines were set to the doxorubicin-free culture medium.
(§2) In brief, the assay was performed in 96-well plates with a final calcein-AM concentration of 0.5 µM for the LLC cell system and 1 µM for the P388 cell system. Cells were washed with pre-warmed HBSS supplemented with 10 mM HEPES (HHBSS) and pre-incubated with this buffer for 30 min and subsequently with the test compound for 10 min (LLC cell system) or 15 min (P388 cell system). After pre-incubation, calcein-AM was added and the cells were incubated for 60 min (LLC system) or 30 min (P388 cell system) at 37 °C on a rotary shaker (Noctua, Vienna, Austria). […]

[3] = system: P-gp (P388/dx cells); assay: P-gp inhibition, calcein-AM uptake assay in P388/dx vs P388 cells; type: cell-based, murine; conditions: not in parental P388, 1 µM calcein-AM, IC50 could not be calculated
Description: as §1, §2

[4] = biological target: T2, OATP1B1 (Homo sapiens, UniProt Q9Y6L6); assay: Flow cytometric OATP1B1 inhibition assay (8-FcA uptake, HEK-OATP1B1); type: cell-based
T2 construct: expressed in transfected cells; host or cells: HEK293 (HEK-OATP1B1)
T2 sequence (Q9Y6L6 whole entry): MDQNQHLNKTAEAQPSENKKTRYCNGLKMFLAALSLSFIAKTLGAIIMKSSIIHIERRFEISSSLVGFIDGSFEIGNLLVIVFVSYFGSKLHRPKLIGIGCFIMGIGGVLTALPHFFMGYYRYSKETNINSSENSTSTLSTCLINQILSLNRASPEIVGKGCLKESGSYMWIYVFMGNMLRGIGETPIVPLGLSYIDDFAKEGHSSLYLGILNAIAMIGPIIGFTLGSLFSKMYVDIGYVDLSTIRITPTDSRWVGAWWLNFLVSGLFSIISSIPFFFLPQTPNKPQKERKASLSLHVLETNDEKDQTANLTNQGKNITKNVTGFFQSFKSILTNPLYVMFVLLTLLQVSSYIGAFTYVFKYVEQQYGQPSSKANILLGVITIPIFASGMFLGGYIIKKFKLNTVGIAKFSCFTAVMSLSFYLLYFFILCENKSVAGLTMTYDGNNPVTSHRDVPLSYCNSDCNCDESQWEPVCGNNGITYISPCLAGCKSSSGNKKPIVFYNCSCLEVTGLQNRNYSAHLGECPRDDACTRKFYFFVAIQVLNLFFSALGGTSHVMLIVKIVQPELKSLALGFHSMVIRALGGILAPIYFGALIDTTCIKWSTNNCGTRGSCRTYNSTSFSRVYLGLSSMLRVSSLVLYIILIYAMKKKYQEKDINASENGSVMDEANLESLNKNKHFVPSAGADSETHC
Description: (§3) As cell models for human OATP1B1 and OATP1B3, HEK293, a human embryonic kidney cell line, stably transfected with OATP1B1 (HEK-OATP1B1), OATP1B3 (HEK-OATP1B3), or the empty control vector (HEK293-VC G418) were used. Cells were cultured under standard cell culture conditions with DMEM supplemented with 10% FCS, 2 mM glutamine, 100 U/mL penicillin, 100 µg/mL streptomycin sulphate, and 800 µg/mL G418. Inhibition of the OATPs was quantified by flow cytometry assessing the uptake of 8-FcA into HEK293 cells over-expressing the respective transporter after 10 min incubation and normalised to the control cell line as described previously. Intracellular fluorescence was quantified in a MACSQuant 10 Analyzer (Milteny, Bergisch-Gladbach, Germany) with the 488 nm laser for excitation and the 525 nm bandfilter for emission (FITC channel). Excluding debris, living cells were gated in the forward/sideward scatter by using the unstained sample. For each concentration (0.1–100 µM), 30,000 cells were measured and each experiment was performed in triplicate. Rifampicin (20 µM), a well-known inhibitor of OATP1B1 and OATP1B3, was used as a positive control.

[5] = biological target: T3, OATP1B3 (Homo sapiens, UniProt Q9NPD5); assay: Flow cytometric OATP1B3 inhibition assay (8-FcA uptake, HEK-OATP1B3); type: cell-based
T3 construct: expressed in transfected cells; host or cells: HEK293 (HEK-OATP1B3)
T3 sequence (Q9NPD5 whole entry): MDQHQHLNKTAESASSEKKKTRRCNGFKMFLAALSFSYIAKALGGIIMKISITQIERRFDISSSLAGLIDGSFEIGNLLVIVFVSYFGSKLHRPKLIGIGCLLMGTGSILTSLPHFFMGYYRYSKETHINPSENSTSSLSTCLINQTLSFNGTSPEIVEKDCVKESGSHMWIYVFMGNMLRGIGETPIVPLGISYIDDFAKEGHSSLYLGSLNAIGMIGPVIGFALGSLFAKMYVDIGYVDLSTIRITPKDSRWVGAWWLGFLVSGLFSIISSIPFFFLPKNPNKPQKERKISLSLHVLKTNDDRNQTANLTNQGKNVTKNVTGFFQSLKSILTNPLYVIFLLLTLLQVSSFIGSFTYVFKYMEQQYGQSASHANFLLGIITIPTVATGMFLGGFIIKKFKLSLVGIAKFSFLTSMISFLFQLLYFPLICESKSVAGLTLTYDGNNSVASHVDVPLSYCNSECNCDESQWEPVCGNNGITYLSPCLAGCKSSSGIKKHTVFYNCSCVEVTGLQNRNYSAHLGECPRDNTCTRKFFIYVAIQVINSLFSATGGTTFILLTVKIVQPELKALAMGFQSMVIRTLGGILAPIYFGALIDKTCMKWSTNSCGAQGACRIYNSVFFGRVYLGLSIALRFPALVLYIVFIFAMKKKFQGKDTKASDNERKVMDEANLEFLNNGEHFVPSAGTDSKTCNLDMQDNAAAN
Description: as §3

[6] = biological target: T4, OATP2B1 (Homo sapiens, UniProt O94956); assay: Flow cytometric OATP2B1 inhibition assay (DBF uptake, HEK293 with tetracycline-induced OATP2B1); type: cell-based
T4 construct: expressed in transfected cells; host or cells: HEK293, tetracycline-induced OATP2B1 expression
T4 sequence (O94956 whole entry): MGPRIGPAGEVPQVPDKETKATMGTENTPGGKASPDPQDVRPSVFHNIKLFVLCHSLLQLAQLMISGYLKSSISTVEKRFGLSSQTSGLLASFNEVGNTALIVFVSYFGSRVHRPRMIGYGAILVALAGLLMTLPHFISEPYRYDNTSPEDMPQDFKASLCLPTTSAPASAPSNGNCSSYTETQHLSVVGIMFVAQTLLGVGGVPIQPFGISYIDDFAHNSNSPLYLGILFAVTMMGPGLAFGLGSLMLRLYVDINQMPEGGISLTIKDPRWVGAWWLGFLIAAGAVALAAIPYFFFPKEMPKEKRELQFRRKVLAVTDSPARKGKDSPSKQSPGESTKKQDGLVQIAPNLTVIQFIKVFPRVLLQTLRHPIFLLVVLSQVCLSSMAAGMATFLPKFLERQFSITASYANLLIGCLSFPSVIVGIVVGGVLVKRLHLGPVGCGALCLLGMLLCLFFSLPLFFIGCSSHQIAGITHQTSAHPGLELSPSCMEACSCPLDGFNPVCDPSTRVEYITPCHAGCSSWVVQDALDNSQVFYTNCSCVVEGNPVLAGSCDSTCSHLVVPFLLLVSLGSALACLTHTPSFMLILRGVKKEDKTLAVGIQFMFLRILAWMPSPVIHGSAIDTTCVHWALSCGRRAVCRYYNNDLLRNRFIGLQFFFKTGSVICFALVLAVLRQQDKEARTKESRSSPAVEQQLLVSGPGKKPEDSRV
Description: As a cell model for human OATP2B1, HEK293 cells over-expressing OATP2B1 in the presence of tetracycline were used. Cells were cultured under standard cell culture conditions with DMEM/Ham’s F12 medium supplemented with 10% FCS, 4 mM glutamine, 100 U/mL penicillin, and 100 µg/mL streptomycin sulphate. To generate OATP2B1 over-expression, cells were treated 72 h before the assay with 1 µg/mL tetracycline. […] Excluding debris, living cells were gated in the forward/sideward scatter by using the unstained sample. […] Uptake in cells with tetracycline induction was normalised to the uptake in cells without induction. Naringin (1 mM) was used as a positive control.

[7] = system: LLC-PK1 cells; assay: Growth inhibition assay (crystal violet), parental LLC-PK1; type: cell-based; conditions: Sus scrofa
Description: (§4) Cell lines with overexpression of an efflux transporter are more resistant to the anti-proliferative effects of a compound if this compound is a substrate of the respective transporter and can be extruded from the cell. […] Reversal of drug resistance was tested by using the P-gp-specific inhibitor LY335979 (zosuquidar) or the BCRP-specific inhibitor FTC. The assay using crystal violet staining was conducted and analysed as described previously. Each experiment was performed at least in quadruplicate with n = 8 wells for each concentration (0.1–500 µM).

[8] = system: L-MDR1 cells (over-expression of human P-gp); assay: Growth inhibition assay (crystal violet), P-gp over-expressing L-MDR1; type: cell-based; conditions: growth inhibition L-MDR1 vs LLC-PK1 with and without LY335979
Description: as §4

[9] = system: P-gp (substrate test by growth inhibition); assay: as above; type: cell-based; conditions: pig, L-MDR1 cells (LLC-PK1 over-expressing human P-gp)
Description: as §4

[10] = system: MDCKII cells; assay: Growth inhibition assay (crystal violet), parental MDCKII; type: cell-based; conditions: Canis lupus familiaris, MDCK-II
Description: as §4

[11] = system: BCRP (substrate test by growth inhibition); assay: Growth inhibition assay (crystal violet), BCRP over-expressing MDCKII-BCRP; type: cell-based; conditions: dog, MDCKII-BCRP cells (MDCKII over-expressing human BCRP)
Description: as §4

[12] = system: MDCKII-BCRP cells (over-expressing human BCRP); assay: as above; type: cell-based; conditions: growth inhibition MDCKII-BCRP vs MDCKII with and without FTC
Description: as §4

[13] = system: LS180 cells; assay: Growth inhibition in LS180 cells (crystal violet); type: cell-based; conditions: Homo sapiens
Description: Proliferation was quantified by crystal violet staining and the assays were conducted as described previously. Each concentration was tested in octuplet and each experiment was performed in quadruplicate.

[14] = system: CYP3A4
Description: (§5) For induction experiments, the human colon adenocarcinoma cell line LS180 (available at ATCC, Manassas, VA, USA) was used. This cell line is an established model for investigating gene inductions mediated by PXR or AhR [25, 28]. Cells were cultured under standard cell culture conditions in DMEM supplemented with 10% FCS, 100 U/mL penicillin, 100 µg/mL streptomycin sulphate, 0.1 mM non-essential amino acids, and 2 mM glutamine.
(§6) All media were adjusted to the DMSO content of the solution with the highest DMSO content in the respective experiment (0.1%). The experiment was conducted in quintuplicate. RNA was extracted immediately after harvesting the cells and stored at −80 °C until processing.
(§7) RNA was isolated using the GenElute™ Mammalian Total RNA Miniprep Kit, and cDNA was synthesized with the RevertAid™ H Minus First Strand cDNA Synthesis Kit according to the manufacturer’s instructions. mRNA expression was quantified by real-time RT-PCR with the LightCycler® 480 (Roche Applied Science, Mannheim, Germany) as described previously. […] Data were evaluated via calibrator-normalised relative quantification with efficiency correction using the LightCycler® 480 software version 1.5.1.62 (Roche Applied Science, Mannheim, Germany). Results were expressed as the target/reference ratio divided by the target/reference ratio of the calibrator. […]

[15] = system: ABCB1; assay: Induction assay in LS180 cells, ABCB1 mRNA (real-time RT-PCR); type: cell-based, human; conditions: LS180, 4 days; hydroxychloroquine 1, 2, 10, 20 µM; rifampicin 20 µM
Description: as §5, §6, §7

[16] = system: ABCG2; assay: Induction assay in LS180 cells, ABCG2 mRNA (real-time RT-PCR); type: cell-based, human; conditions: LS180, 4 days; hydroxychloroquine 1, 2, 10, 20 µM; rifampicin 20 µM; omeprazole 150 µM
Description: as §5, §6
RNA was isolated using the GenElute™ Mammalian Total RNA Miniprep Kit, and cDNA was synthesized with the RevertAid™ H Minus First Strand cDNA Synthesis Kit according to the manufacturer’s instructions. mRNA expression was quantified by real-time RT-PCR with the LightCycler® 480 (Roche Applied Science, Mannheim, Germany) as described previously. […] Data were evaluated via calibrator-normalised relative quantification with efficiency correction using the LightCycler® 480 software version 1.5.1.62 (Roche Applied Science, Mannheim, Germany). Results were expressed as the target/reference ratio divided by the target/reference ratio of the calibrator. The results are therefore corrected for sample inhomogeneities and variance caused by detection. All samples were amplified in duplicate and the mean of the technical duplicate was used for further calculation.

[17] = system: CYP1A1; assay: Induction assay in LS180 cells, CYP1A1 mRNA (real-time RT-PCR); type: cell-based, human; conditions: LS180, 4 days; hydroxychloroquine 1, 2, 10, 20 µM; omeprazole 150 µM
Description: as §5, §6, §7

[18] = system: CYP1A2; assay: Induction assay in LS180 cells, CYP1A2 mRNA (real-time RT-PCR); conditions: LS180, 4 days; hydroxychloroquine 1, 2, 10, 20 µM; omeprazole 150 µM
Description: as §5, §6, §7

[19] = cited from earlier work
[20] = system: OATP1B3; conditions: at 10 µM; cited from earlier work
[21] = system: OATP2B1; conditions: at 10 µM; cited from earlier work
[22] = system: organic anion transporters (OATs); conditions: cited from earlier work
[23] = system: organic cation transporters (OCTs); conditions: cited from earlier work
[24] = system: organic cation/carnitine transporters (OCTNs); conditions: cited from earlier work
[25] = system: OATP1A2; conditions: uptake of all-trans-retinol in vitro; cited from earlier work
[26] = system: P-gp; parameters: method as in PMID 7113754; conditions: two case reports; cited from earlier work
[27] = 0.1–100 µM, 8-FcA uptake, 10 min

CCN(CCO)CCCC(C)Nc1ccnc2cc(Cl)ccc12 (centres unmarked) [hydroxychloroquine]
toxic effects (LDH release) [1]: no toxic effects
effect on intracellular calcein fluorescence (P-gp inhibition) [2]: did not affect intracellular calcein fluorescence
concentrations at which intracellular calcein fluorescence was increased (weak P-gp inhibition) [3]: higher than 10 µM
OATP1B1 inhibition [4, 27]: did not inhibit
OATP1B3 inhibition [5, 27]: did not inhibit
OATP2B1 inhibition ([6]; 0.1–100 µM, 1 µM DBF uptake, 10 min): did not inhibit
IC50 ([7]; LLC-PK1, LLC-PK1): 82 ± 10 µM
IC50 ([7]; LLC-PK1, LLC-PK1 + LY335979 (P-gp inhibitor)): 93 ± 2 µM
P-gp substrate characteristics [8]: substrate of the efflux transporter P-gp
IC50 [9]: 427 ± 16 µM
IC50 ([9]; with LY335979 (zosuquidar), concentration not given, L-MDR1 + LY335979 (P-gp inhibitor)): 90 ± 1 µM
IC50 [10]: 89 ± 12 µM
IC50 [11]: 88 ± 9 µM
IC50 ([11]; with FTC, concentration not given, MDCKII-BCRP + FTC): 92 ± 5 µM
BCRP substrate characteristics [12]: not transported by BCRP
IC20 [13]: 22.5 ± 7.3 µM
CYP3A4 mRNA expression [14]: no significant effect
ABCB1 mRNA expression [15]: no significant effect
ABCG2 mRNA expression [16]: no significant effect
CYP1A1 mRNA expression [17]: no significant effect
CYP1A2 mRNA expression [18]: no significant effect
blood concentrations at steady-state ([19]; 400 mg/day): up to 9 µM
volume of distribution ([19]; in blood): 5522 L
volume of distribution ([19]; in plasma): 44,257 L
concentration within lysosomes at steady-state (postulated) ([19]; lysosomes): 80000 µM
average intracellular concentration at steady-state (postulated) ([19]; tissue/cells): 1 mM
OATP1B3 inhibition [20]: about 20%
OATP2B1 inhibition [21]: about 20%
inhibition of organic anion transporters (OATs) [22]: weak inhibition
inhibition of organic cation transporters (OCTs) [23]: no inhibition
inhibition of organic cation/carnitine transporters (OCTNs) [24]: no inhibition
OATP1A2 inhibition [25]: competitive inhibitor
effect on digoxin plasma concentrations during concurrent therapy [26]: increased plasma concentrations of digoxin

COc1ccc2[nH]c([S+]([O-])Cc3ncc(C)c(OC)c3C)nc2c1 (centres unmarked) [omeprazole]
ABCG2 mRNA expression [16]: significantly up-regulated
CYP1A1 mRNA expression [17]: significantly up-regulated
CYP1A2 mRNA expression [18]: significantly up-regulated

CO[C@H]1/C=C/O[C@@]2(C)Oc3c(C)c(O)c4c(O)c(c(/C=N/N5CCN(C)CC5)c(O)c4c3C2=O)NC(=O)/C(C)=C\C=C\[C@H](C)[C@H](O)[C@@H](C)[C@@H](O)[C@@H](C)[C@H](OC(C)=O)[C@@H]1C [rifampicin]
inhibition at 10 min, 20 µM ([4]; human, HEK293 cells stably transfected with OATP1B1 (HEK-OATP1B1), probe 8-FcA, 20 µM, positive control): 80%
inhibition at 10 min, 20 µM ([5]; human, HEK293 cells stably transfected with OATP1B3 (HEK-OATP1B3), probe 8-FcA, 20 µM, positive control): 90%
ABCB1 mRNA expression [15]: significantly up-regulated
ABCG2 mRNA expression [16]: slightly

C[C@@H]1O[C@@H](O[C@H]2[C@H](Oc3cc(O)c4c(c3)O[C@H](c3ccc(O)cc3)CC4=O)O[C@H](CO)[C@@H](O)[C@@H]2O)[C@H](O)[C@H](O)[C@H]1O [naringin]
inhibition at 10 min, 1 mM ([6]; human, probe DBF (1 µM), 1 mM, positive control): 70%
